Experiment [1] deals with healthy human individuals. Nature of the experiment: Pilot study of genioglossus muscle activity (EMGGG). Format: in vivo. On the procedure: In healthy human individuals, the effect of once daily taltirelin 5 mg on genioglossus muscle activity is measured in a pilot study.
A first group of the patients is given once daily taltirelin 5 mg. A second group of patients is given placebo. Genioglossus muscle activity (EMGGG, quantified as a percentage of maximum) is measured during quiet wakefulness. Each peak EMGGG of a single breath is measured and is plotted against the corresponding epiglottic pressure. In addition, EMGGG is measured during stable NREM sleep.

The next experiment has as its system OSA human patients. Nature of the experiment: Placebo-controlled, double-blinded, randomized, crossover trial in OSA. The class given is in vivo. The following applies: once daily 5-10 mg, 30 minutes before sleep. On the procedure: A placebo-controlled, double-blinded, randomized, crossover trial in OSA human patients is performed. Participants receive treatment (once daily taltirelin 5-10 mg) or placebo in randomized order 30 minutes before sleep.

SMILES strings stand for the structures.

Turning to `CN1C(=O)C[C@@H](C(=O)N[C@@H](Cc2cnc[nH]2)C(=O)N2CCC[C@H]2C(N)=O)NC1=O` [taltirelin], in experiment [1] (once daily 5 mg, NREM sleep), the “EMGGG activity during NREM sleep compared to placebo” value is given as “much higher EMGGG activity”. For the same compound, in experiment [1] (once daily 5 mg, subjects exhibiting REM sleep), the “effect during REM sleep” value was “effective during REM sleep”. Besides, in experiment [1] (once daily taltirelin 5 mg vs placebo night, during sleep), the “sleep-related reduction in pharyngeal muscle activity (EMGGG)” value is given as “partially or completely prevented”. Besides, in the experiment with OSA human patients, the “genioglossus muscle responsiveness to an increase in ventilatory drive” value was “increased genioglossus muscle responsiveness”, the “oxygen levels (SaO2)” value is given as “increased oxygen levels”, the sleep efficiency result is “improved sleep efficiency” and the total sleep time entry was “increased total sleep time”. In addition, in the experiment with OSA human patients, the “upper airway muscle activity” value is listed as “improved upper airway muscle activity” and the ventilation result is “improved ventilation”. The OSA severity result in the experiment with OSA human patients (all patients) was “improvement in OSA severity”. Besides, in the experiment on OSA human patients (vs placebo), the apnea hypopnea index result is “reduce the apnea hypopnea index”.

Source of the values: patent US20230135373A1, “METHODS AND COMPOSITIONS FOR TREATING SLEEP APNEA” (APNIMED, INC. (DELAWARE), priority 2020, published 2023).
